Patent publication US5753673A, “Quinolinecarboxylic acid derivatives” (Taisho Pharmaceutical Co., Ltd., priority 1994, dated 1998)

How the values were obtained:
[1] = tested on: gastrointestinal motor function; conditions: TALLEY, N. J., 1992; cited from earlier work
5-HT1A receptor = target: T1, 5-HT1A receptor (Rattus norvegicus, UniProt P19327); assay: Selectivity for receptors: 5-HT1A receptor, inhibition of [^3 H] 8-OH-DPAT binding to rat cerebral cortex membrane
T1 construct: The rat cerebral cortex was homogenized in 50 mM Tris hydrochloride buffer; from tissue; host or cells: rat cerebral cortex membranes
T1 sequence (P19327 1-422): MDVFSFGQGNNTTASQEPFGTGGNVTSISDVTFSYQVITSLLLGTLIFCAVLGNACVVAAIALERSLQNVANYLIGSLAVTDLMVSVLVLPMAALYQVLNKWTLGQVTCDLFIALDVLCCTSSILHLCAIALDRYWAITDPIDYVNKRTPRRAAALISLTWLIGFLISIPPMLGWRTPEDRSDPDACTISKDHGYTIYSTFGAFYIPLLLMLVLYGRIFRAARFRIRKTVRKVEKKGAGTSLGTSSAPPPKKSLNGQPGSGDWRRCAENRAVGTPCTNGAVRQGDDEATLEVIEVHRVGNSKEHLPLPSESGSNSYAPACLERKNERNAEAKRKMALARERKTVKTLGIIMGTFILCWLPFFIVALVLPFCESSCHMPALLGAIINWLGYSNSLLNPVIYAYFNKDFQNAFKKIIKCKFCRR
Description: The selectivity for receptors of the quinolinecarboxylic acid derivatives of the present invention was examined by the following method.
The affinity to serotonin 1A (5-HT1A) receptor was examined by the method described in […], J. R. et al., Biochem. Pharmacol., 12, 1943-1949 (1986).
The affinity to serotonin 1A (5-HT1A) was examined in terms of inhibition of [^3 H] 8-OH-DPAT (Daiichi Kagaku Yakuhin Co.) binding to rat cerebral cortex membrane. The rat cerebral cortex was homogenized in 50 mM Tris hydrochloride buffer (pH 7.4) followed by centrifugation at 48,000 G.
The pellet was washed once with Tris hydrochloride buffer. Then the pellet was suspended in 50 mM Tris hydrochloride buffer (supplemented with 0.01 mM pargyline and 0.1% ascorbic acid, pH 7.7) and provided for use as the membrane preparation. The membrane specimen was reacted with 1 nM [^3 H] 8-OH-DPAT at 37° C. for 15 minutes. After the reaction, the membrane was caught by a harvester. Non-specific binding was defined as that taken in the presence of 10 μM 5-HT.

COc1cc(N)c(Cl)cc1C(=O)NC1CCN2CCCC1C2 (stereo not drawn) [renzapride]
effect on gastrointestinal motor function and conditions [1]: accelerate the gastrointestinal motor function and improve the gastrointestinal conditions

COc1cc(N)c(Cl)cc1C(=O)N[C@@H]1CCN(CCCOc2ccc(F)cc2)C[C@@H]1OC (relative stereo) [Comparative Compound 1, Cisapride, reference compound]
effect on gastrointestinal motor function and conditions [1]: accelerate the gastrointestinal motor function and improve the gastrointestinal conditions
IC50 (5-HT1A receptor): 0.0647 µM
